Laboratory results: patent US20150329519A1, “Formulations Comprising Lipoyl Compounds” (Ischemix, LLC, priority 2014, published 2015)

What was measured:
[1] = test system: patients with stable coronary artery disease undergoing elective stent placement by PCI; test: Randomized placebo-controlled study of single IV dose in patients undergoing elective stent placement by PCI (CK-MB, Troponin-T); type: in vivo, human; settings: for Troponin-T (ng/mL) - Change from baseline (FAP population), Mean / Troponin-T (ng/mL) - Change from baseline (FAP population), Median / Troponin-T (ng/mL), Mean / Troponin-T (ng/mL), Median: Day 1 (24 hours)
Description: A prospective, multi-center, blinded, randomized, placebo-controlled study to evaluate single dose regimens of a 10 mg/mL (R)Lip-EA-OH formulation for IV administration or single dose placebo in patients with stable coronary artery disease undergoing elective stent placement by PCI meeting all the eligibility criteria was conducted. The (R)Lip-EA-OH formulation was made in accordance with Example 3 and was administered at one of three doses: 0.8 mg/kg, 1.6 mg/kg and 2.4 mg/kg. The primary objective was to assess the safety of the (R)Lip-EA-OH formulation, ascertained by measuring the changes in CK-MB values up to 24 hours after the last balloon inflation. The secondary objective was to evaluate reduction of myocardial injury associated with stent PCI, as determined by serial measurements of cardiac biomarkers and as determined by continuous and serial ECG readings.
The primary outcome measure was the change in CK-MB at 24 hours after the last balloon inflation and it served as a surrogate marker for myocardial injury considered for safety and efficacy. CK-MB levels were measured on Day 1 at 0, 6, 12, 18, and 24 hours after the last balloon inflation.
The maximum serum concentration of CK-MB (Cmax) is calculated by subtracting the baseline value from the maximum concentration of CK-MB measured at any time point. CK-MB Cmax is correlated to the extent of myocardial injury associated with the PCI. The greatest Cmax value observed was in the placebo group.

[2] = Polymer content by HPLC area counts after formulation or salt formation; type: physicochemical
Description: The purity of a lipoyl compound was analyzed by reversed-phase high performance liquid chromatography (HPLC). Mobile phase A was 0.1% triflouroacetic acid (TFA) in H2O and mobile phase B was 0.1% TFA in acetontrile (ACN). A linear gradient of 85:15 to 26:74 over 22 minutes at a flow rate of 1.5 mL/min at 30° C. was used. A lipoyl compound was diluted in ethanol:water (1:1) at a concentration of 1 mg/mL and a 25 μL aliquot was injected onto the HPLC. The sample was detected at 220 nm.
The initial procedure used to formulate (R)Lip-EA-OH consisted of the following sequence: • 1. Neutralize solid (R)Lip-EA-OH by treatment with aqueous sodium bicarbonate or sodium hydroxide; • 2. Dilute with water and saline to near the final volume and concentration; and • 3. Adjust pH and add water to final volume and concentration.
This formulation procedure was used effectively to prepare formulation from multiple lots of (R)Lip-EA-OH that were synthesized at scales below 50 g. As the synthetic process was scaled-up, however, partial polymerization of (R)Lip-EA-OH was observed during formulation. […]
Since (R)Lip-EA-OH was converted to the corresponding bis-sodium salt in situ during formulation, a procedure for synthesizing the bis-sodium salt of (R)Lip-EA-OH was examined. […] The isolated polymer was treated with the reducing agent dithiothreitol (DTT), and the resulting sample was analyzed by HPLC. […]

[3] = test system: myocardial damage associated with percutaneous coronary intervention; settings: human trial, Kates et al. 2014; cited from earlier work
[4] = 2.4 mg/kg dose group compared with other groups
[5] = 0.8, 1.6 or 2.4 mg/kg versus placebo, following PCI

C[C@H](NC(=O)[C@H](CCC(=O)O)NC(=O)CCCC[C@@H]1CCSS1)C(=O)O [(R)Lip-EA-OH, α-N—[(R)-1,2-diothiolane-3-pentanoyl]-L-glutamyl-L-alanine]
CK-MB (ng/mL) - Change from Baseline, Mean ([1]; 0.8 mg/kg single IV dose of 10 mg/mL formulation, 6 hr after last balloon inflation): 0.12 ng/mL | CK-MB (ng/mL) - Change from Baseline, Mean ([1]; 0.8 mg/kg single IV dose of 10 mg/mL formulation, 12 hr after last balloon inflation): 1.63 ng/mL | CK-MB (ng/mL) - Change from Baseline, Mean ([1]; 0.8 mg/kg single IV dose of 10 mg/mL formulation, 18 hr after last balloon inflation): 1.87 ng/mL | CK-MB (ng/mL) - Change from Baseline, Mean ([1]; 0.8 mg/kg single IV dose of 10 mg/mL formulation, 24 hr after last balloon inflation): 1.80 ng/mL | Troponin-T (ng/mL) - Change from baseline (FAP population), Mean ([1]; 0.8 mg/kg): 0.041 ng/mL | Troponin-T (ng/mL) - Change from baseline (FAP population), Median ([1]; 0.8 mg/kg): 0.000 ng/mL | Troponin-T (ng/mL), Mean ([1]; 0.8 mg/kg): 0.042 ng/mL | Troponin-T (ng/mL), Median ([1]; 0.8 mg/kg): 0.000 ng/mL | CK-MB (ng/mL) - Change from Baseline, Mean ([1]; 1.6 mg/kg single IV dose of 10 mg/mL formulation, 6 hr after last balloon inflation): 0.76 ng/mL | CK-MB (ng/mL) - Change from Baseline, Mean ([1]; 1.6 mg/kg single IV dose of 10 mg/mL formulation, 12 hr after last balloon inflation): 1.95 ng/mL | CK-MB (ng/mL) - Change from Baseline, Mean ([1]; 1.6 mg/kg single IV dose of 10 mg/mL formulation, 18 hr after last balloon inflation): 2.55 ng/mL | CK-MB (ng/mL) - Change from Baseline, Mean ([1]; 1.6 mg/kg single IV dose of 10 mg/mL formulation, 24 hr after last balloon inflation): 2.54 ng/mL | Troponin-T (ng/mL) - Change from baseline (FAP population), Mean ([1]; 1.6 mg/kg): 0.068 ng/mL | Troponin-T (ng/mL) - Change from baseline (FAP population), Median ([1]; 1.6 mg/kg): 0.000 ng/mL | Troponin-T (ng/mL), Mean ([1]; 1.6 mg/kg): 0.066 ng/mL | Troponin-T (ng/mL), Median ([1]; 1.6 mg/kg): 0.000 ng/mL | CK-MB Cmax as an indicator of injury [1, 4]: least amount of injury | Efficacy markers of periprocedural injury (changes in Troponin-T, CK-MB AUC0-24, Cmax of CK-MB) [1, 4]: lowest | CK-MB (ng/mL) - Change from Baseline, Mean ([1]; 2.4 mg/kg single IV dose of 10 mg/mL formulation, 6 hr after last balloon inflation): -0.10 ng/mL | CK-MB (ng/mL) - Change from Baseline, Mean ([1]; 2.4 mg/kg single IV dose of 10 mg/mL formulation, 12 hr after last balloon inflation): 0.10 ng/mL | CK-MB (ng/mL) - Change from Baseline, Mean ([1]; 2.4 mg/kg single IV dose of 10 mg/mL formulation, 18 hr after last balloon inflation): 0.30 ng/mL | CK-MB (ng/mL) - Change from Baseline, Mean ([1]; 2.4 mg/kg single IV dose of 10 mg/mL formulation, 24 hr after last balloon inflation): 0.44 ng/mL | Troponin-T (ng/mL) - Change from baseline (FAP population), Mean ([1]; 2.4 mg/kg): 0.018 ng/mL | Troponin-T (ng/mL) - Change from baseline (FAP population), Median ([1]; 2.4 mg/kg): 0.000 ng/mL | Troponin-T (ng/mL), Mean ([1]; 2.4 mg/kg): 0.019 ng/mL | Troponin-T (ng/mL), Median ([1]; 2.4 mg/kg): 0.000 ng/mL | Maximum CK-MB change from baseline (FIG. 3) [1, 5]: less myocardial injury than patients in the placebo group | Troponin T change from baseline in the full analysis population (FIG. 4) [1, 5]: less myocardial injury than patients in the placebo group | Efficacy in reducing myocardial injury / cardioprotective action ([1]; patients undergoing stent PCI, 0.8, 1.6 or 2.4 mg/kg): demonstrated efficacy in reducing the myocardial injury | Polymer based upon HPLC area counts ([2]; after formulation by the initial procedure (solid neutralized, then diluted), FIG. 1): > 20% | Polymer by HPLC area count analysis ([2]; initially, before formulation): < 0.1% | Protection against myocardial damage associated with percutaneous coronary intervention [3]: statistically significant protection
